{"source": "paper PMC4286191", "about": "(MedChemComm, 2014)", "key": {"[1]": {"molecular_target": "purified recombinant LSD1 (Homo sapiens, UniProt O60341)", "test": "Fluorescence-based recombinant LSD1 inhibition assay", "format": "biochemical", "details": "residual activity at 10 μM; average of 3 determinations ± SEM; Table 2"}, "[2]": {"tested_on": "MCF-10A human breast epithelial cell line", "test": "Cytotoxicity in MCF-10A", "format": "cell-based"}, "CA46 Burkitt's lymphoma": {"tested_on": "CA46 Burkitt's lymphoma", "test": "Cytotoxicity in CA46", "format": "cell-based"}}}
{"smiles": "N=C(NCCCNCCCCCCCNCCCNC(=N)NC(=N)NCCC(c1ccccc1)c1ccccc1)NC(=N)NCCC(c1ccccc1)c1ccccc1", "note": "[Compound 2, verlindamycin]", "values": [{"measurement": "% LSD1 Activity (10μM)", "setting": "[1]", "result": "33.9 ± 6.7", "unit": "%"}]}
{"smiles": "COc1ccccc1CNc1n[nH]c(NCc2ccccc2OC)n1", "note": "[Compound 7, N^3,N[5]-bis(2-methoxybenzyl)-1H-1,2,4-triazole-3,5-diamine]", "values": [{"measurement": "Cytotoxicity in MCF-10A", "setting": "[2]", "result": "no significant cytotoxicity"}, {"measurement": "Cytotoxicity in CA46", "setting": "CA46 Burkitt's lymphoma", "result": "no significant cytotoxicity"}]}
